Source: article PMC11133627, “CATH-2-derived antimicrobial peptide inhibits multidrug-resistant Escherichia coli infection in chickens” (Frontiers in Cellular and Infection Microbiology, 2024)
In brackets after ≈: the same amount, converted by molar mass.

Assays:
[1] = system: E. coli (ATCC 8739); assay: Sterilization kinetics assay; type: cell-based, Escherichia coli; conditions: 8 μg/mL, 1×10^5 CFU/mL, 37°C, colony count
Procedure: The sterilization kinetics assay was performed following previous methods ([Peng et al., 2022]; [Yong Fang et al., 2023]). […] At each time point, 10 μL of sample was diluted in 1 mL of PBS, and 100 μL of the dilution was plated on LB agar plates. After incubating at 37°C for 24h, the number of colonies was counted.

[2] = system: E. coli clinical isolate E14; assay: Drug-sensitivity test (paper disc, inhibition zone); type: cell-based, Escherichia coli; parameters: key to Drug sensitivity of E. coli E14: R: resistant strains; I: intermediate strains; S: sensitive strains
Procedure: (§1) E. coli (ATCC 8739) and clinical isolates of E. coli (E1, E9, E12, E14, E16, and E18) were stored at the Animal Biochemical Laboratory of Shanxi Agricultural University and grown in Luria-Bertani (LB) broth as previously reported ([Zhao et al., 2021]). Circular 6 mm paper pieces were prepared with filter paper and autoclaved for sterilization. […] Then, 0.5 mL of antibiotic solution was added to 100 sterilized papers. Subsequently, the paper pieces were fully infiltrated and dried in a vacuum drying oven to produce antibiotic susceptibility papers. The E. coli strain was retrieved from the -20°C freezer and activated by incubating it on LB agar media at 37°C for 24h. Individual colonies were selected and transferred to LB liquid media. Thereafter, the E. coli suspension was obtained by shaking at 37°C and 160 r/min for 18h. The obtained suspension was centrifuged at 5000 r/min for 5min, after which the supernatant was discarded, and the bacteria were resuspended in fresh medium to a concentration of 1×10^6 CFU/mL. Two hundred microliters of the bacterial suspension mentioned above was spread evenly onto LB agar medium. Then, the antibiotic susceptibility papers were placed on the medium surface using sterile tweezers. After 24h of incubation at 37°C, the diameter of the inhibition zone was measured to determine the susceptibility of E. coli to antibiotics.

[3] = system: E. coli (ATCC 8739); assay: as above; type: cell-based, Escherichia coli; parameters: key: R: resistant strains; I: intermediate strains; S: sensitive strains; conditions: 6 mm antibiotic paper on LB agar, 1×10^6 CFU/mL, 24h 37°C, inhibition zone diameter
Procedure: as §1

[4] = system: E. coli clinical isolate E18; assay: as above; type: cell-based, Escherichia coli; parameters: key: R: resistant strains; I: intermediate strains; S: sensitive strains; conditions: 6 mm antibiotic paper on LB agar, 1×10^6 CFU/mL, 24h 37°C, inhibition zone diameter
Procedure: as §1

[5] = system: E. coli clinical isolate E9; assay: as above; type: cell-based, Escherichia coli; parameters: key: R: resistant strains; I: intermediate strains; S: sensitive strains; conditions: 6 mm antibiotic paper on LB agar, 1×10^6 CFU/mL, 24h 37°C, inhibition zone diameter
Procedure: as §1

[6] = system: E. coli clinical isolate E12; assay: as above; type: cell-based, Escherichia coli; parameters: key to Drug sensitivity of E. coli E12: R: resistant strains; I: intermediate strains; S: sensitive strains
Procedure: as §1

[7] = system: E. coli clinical isolate E12; assay: microbe, parasite or virus in culture; type: cell-based, Escherichia coli; conditions: Escherichia coli
Procedure: (§2) The minimum inhibitory concentrations (MICs) of the AMPs were determined using the microbroth dilution technique ([van Harten et al., 2021]). One hundred microliters of bacterial suspension at a concentration of 1×10^6 CFU/mL was pipetted into a 96-well plate. Then, 100 μL of AMP or gentamicin at various concentrations was added, while the bacterial suspension without AMPs and blank medium were used as controls.

[8] = system: E. coli clinical isolate E14; assay: microbe, parasite or virus in culture; type: cell-based, Escherichia coli; conditions: Escherichia coli
Procedure: as §2

[9] = system: E. coli clinical isolate E16; assay: microbe, parasite or virus in culture; type: cell-based, Escherichia coli; conditions: Escherichia coli
Procedure: as §2

[10] = system: E. coli (ATCC 8739); assay: microbe, parasite or virus in culture; type: cell-based, Escherichia coli; conditions: Escherichia coli, ATCC8739
Procedure: as §2

[11] = system: E. coli clinical isolate E18; assay: microbe, parasite or virus in culture; type: cell-based, Escherichia coli; conditions: Escherichia coli
Procedure: as §2

[12] = system: E. coli clinical isolate E9; assay: microbe, parasite or virus in culture; type: cell-based, Escherichia coli; conditions: Escherichia coli
Procedure: as §2

[13] = system: E. coli clinical isolate E1; type: cell-based; parameters: key: R: resistant strains; I: intermediate strains; S: sensitive strains; conditions: 6 mm antibiotic paper on LB agar, 1×10^6 CFU/mL, 24h 37°C, inhibition zone diameter
Procedure: as §1

[14] = system: E. coli clinical isolate E1; assay: microbe, parasite or virus in culture; conditions: Escherichia coli
Procedure: as §2

[15] = system: E. coli (E16); assay: Chicken infection with MDR E. coli; type: in vivo
Procedure: Except for the blank control group injected with 500 μL of normal saline, the other four groups were injected with 500 μL of 3×10^9 CFU/mL E. coli (E16) into the pectoral muscles. […] Clinical symptoms and were observed and documented for the chickens in each group after infection. After 72h, the chickens in each group were euthanized and examined for internal organ damage. Paraffin sections were prepared for microscopic examination of pathological changes. Under sterile conditions, 1 g samples of heart, liver, and spleen were collected, and each sample was supplemented with 20 mL of sterile PBS. After thorough grinding, the sample was diluted to the appropriate multiple, and 100 μL of the diluent was spread onto LB agar medium. The plates were incubated for 24h, after which the colonies were counted.

[16] = system: E. coli clinical isolate E16; assay: Drug-sensitivity test (paper disc, inhibition zone); type: cell-based, Escherichia coli; parameters: key to Drug sensitivity of E. coli E16: R: resistant strains; I: intermediate strains; S: sensitive strains
Procedure: as §1

[17] = 6 mm antibiotic paper on LB agar, 1×10^6 CFU/mL, 24h 37°C, inhibition zone diameter

CNC(C)C1CCC(N)C(OC2C(N)CC(N)C(OC3OCC(C)(O)C(NC)C3O)C2O)O1 (stereo not shown) [gentamicin, reference compound]
Time for complete bacterial eradication [1]: ≤ 60 min | Drug sensitivity of E. coli E14 [2, 17]: S | Drug sensitivity of E. coli E14 (in words) ([2]; paper disc test): susceptible | Drug sensitivity of E. coli ATCC 8739 [3]: I | Drug sensitivity of E. coli E18 [4]: R | Drug sensitivity of E. coli E9 [5]: I | Drug sensitivity of E. coli E12 [6, 17]: S | Drug sensitivity of E. coli E12 (in words) ([6]; paper disc test): susceptible | MBC ([7]; 50 μL from fully inhibited wells plated on LB agar, colonies counted after 24h 37°C, read-out: MBC against E. coli E12): 4 µg/mL (≈ 8.38 µM) | MIC ([7]; microbroth dilution, 1×10^6 CFU/mL, 37°C 18h, turbidity, read-out: MIC against E. coli E12): 4 µg/mL (≈ 8.38 µM) | MBC ([8]; 50 μL from fully inhibited wells plated on LB agar, colonies counted after 24h 37°C, read-out: MBC against E. coli E14): 4 µg/mL (≈ 8.38 µM) | MIC ([8]; microbroth dilution, 1×10^6 CFU/mL, 37°C 18h, turbidity, read-out: MIC against E. coli E14): 4 µg/mL (≈ 8.38 µM) | MBC ([9]; 50 μL from fully inhibited wells plated on LB agar, colonies counted after 24h 37°C, read-out: MBC against E. coli E16): 4 µg/mL (≈ 8.38 µM) | MIC ([9]; microbroth dilution, 1×10^6 CFU/mL, 37°C 18h, turbidity, read-out: MIC against E. coli E16): 4 µg/mL (≈ 8.38 µM) | MBC ([10]; 50 μL from fully inhibited wells plated on LB agar, colonies counted after 24h 37°C, read-out: MBC against E. coli ATCC 8739): 8 µg/mL (≈ 16.8 µM) | MIC ([10]; microbroth dilution, 1×10^6 CFU/mL, 37°C 18h, turbidity, read-out: MIC against E. coli ATCC 8739): 8 µg/mL (≈ 16.8 µM) | MBC ([11]; 50 μL from fully inhibited wells plated on LB agar, colonies counted after 24h 37°C, read-out: MBC against E. coli E18): 128 µg/mL (≈ 268 µM) | MIC ([11]; microbroth dilution, 1×10^6 CFU/mL, 37°C 18h, turbidity, read-out: MIC against E. coli E18): 64 µg/mL (≈ 134 µM) | MBC ([12]; 50 μL from fully inhibited wells plated on LB agar, colonies counted after 24h 37°C, read-out: MBC against E. coli E9): 8 µg/mL (≈ 16.8 µM) | MIC ([12]; microbroth dilution, 1×10^6 CFU/mL, 37°C 18h, turbidity, read-out: MIC against E. coli E9): 8 µg/mL (≈ 16.8 µM) | Drug sensitivity of E. coli E1 [13]: R | MIC ([14]; 18 h, read-out: MIC against E. coli E1): 64 µg/mL (≈ 134 µM) | MBC ([14]; 24 h, read-out: MBC against E. coli E1): 64 µg/mL (≈ 134 µM) | 3-day mortality rate ([15]; 200 μg/mL, 500 μL into pectoral muscle 4h after 1.5×10^9 CFU E16): 10% | Bacterial loads in the heart, liver and spleen (in words) ([15]; after 3 days of infection, vs infected untreated): significantly reduced | Organ lesions of heart, liver, intestine (in words) ([15]; autopsy, vs E. coli infection group): significant reduction in organ lesions | Drug sensitivity of E. coli E16 [16, 17]: S | Drug sensitivity of E. coli E16 (in words) ([16]; paper disc test): susceptible
